One compound from PubChem BioAssay AID1963422 (Molecular Pharmacology Branch, DTP, NCI, 2024) can be followed below.

The test system of the assay is 463943-066-T-J2-PDC complex spheroid growth. Briefly: Anticancer human tumor 463943-066-T-J2-PDC patient-derived colon adenocarcinoma cell line growth inhibition [Asc]. The settings on record: for viability, T/C: stronger effect = lower value. As for the experimental part: Multicellular complex tumor spheroid response to apoptosis pathway targeting inhibitors Alrizomadlin, Pelcitoclax, and Dasminapant in combination with a variety of drugs and investigational agents in selected tumor cell lines
The MDM2 inhibitor alrizomadlin, the Bcl-2/Bcl-xL inhibitor pelcitoclax, and the IAPs inhibitor dasminapant were evaluated both individually and in combination with standard of care and investigational anticancer small molecules within a complex spheroid model of solid tumors. . Complex spheroids include a stromal component modeled by human endothelial cells (HUVEC) and fibroblasts modeled by human mesenchymal stem cells (MSCs). The concentration ranges selected for each drug and investigational agent were based upon clinically achievable concentrations if the clinical Cmax of the agent was known.
Compounds. The drugs and investigational agents: alrizomadlin (APG-115; NSC831270), pelcitoclax (APG-1252; NSC835773), dasminapant (APG-1387;NSC834197), TAK-243 (NSC785004), copanlisib (NSC809693), olaparib (NSC753686), talazoparib (NSC767125), cobimetinib (NSC 768068), eltanexor (KPT-8602, NSC 794443), abemaciclib (NSC 768073), sotorasib (NSC818433), adagrasib (NSC 831453), MRTX-1133 (NSC 836407), Iadademestat (ORY1001, NSC 806812), and RMC-4630 (NSC839698), were obtained from the NCI Developmental Therapeutics Program Chemical Repository. The FDA-approved anticancer drug set is available from the Developmental Therapeutics Program at https://dtp.cancer.gov/organization/dscb/obtaining/available plates.htm. […] The stock solutions were prepared in dimethyl sulfoxide (DMSO, Sigma-Aldrich, St. Louis, MO, cat. D2650) at 800-fold the tested concentration and stored at -70 degrees C prior to their use. All drugs and investigational agents were tested over a range starting from a high concentration at or near the clinical Cmax and decreasing in half-log increments. If the clinical Cmax for an agent had not been determined, the highest concentration tested was 10 microM.
The patient-derived cancer (PDC) cell lines include five colon adenocarcinomas: 186277-243-T-J2-PDC, 616215-338-R-J1-PDC, 439559-082-T-J2-PDC, 463943-066-T-J2-PDC, and 519858-162-T-J1-PDC; three pancreatic carcinomas: 323965-272-R-J2-PDC, 521955-158-R6-J3-PDC, and 521955-158-R2-J5-PDC; two uterine sarcomas: 327498-152-R-J2-PDC and 993429-296-R-J1-PDC; two rhabdomyosarcomas: 755483-174-R-J1-PDC and 772245-204-R-J1-PDC; two soft tissue sarcomas: 126254-015-R-J1-PDC and 494315-158-R-J1-PDC; two malignant fibrous histiocytomas: 317291-083-R-J1-PDC and 596521-263-R-J1-PDC; two breast carcinomas: 171881-019-R-J1-PDC and 885512-296-R-J2-PDC; and one ovarian carcinoma: 6556581-035-R-J-PDC were obtained from the NCI PDMR, (https://pdmr.cancer.gov). The established cell lines HSSY-2 synovial sarcoma (RRID:CVCL 8719), SYO-1 synovial sarcoma (RRID:CVCL_7146), MPNST malignant peripheral neural sheath tumor were obtained from the Sloan Kettering Institute. The following established cell lines were purchased from the American Type Culture Collection (ATCC, Manassas, VA), Sor the received from the NCI repository:, PANC-1 pancreatic carcinoma (CRL-1469, RRID:CVCL_0480), OVCAR-5 ovarian carcinoma (RRID:CVCL_1628), OVCAR-8 ovarian carcinoma (RRID:CVCL_1629), , MCF-7 breast carcinoma (CRL-12584, RRID:CVCL_0031), MDA-MB-231 breast carcinoma (CRL-12532, RRID:CVCL_0062), NCI-H1876 small cell lung carcinoma (CRL-5902, RRID:CVCL_1503), NCI-H510A small cell lung carcinoma (HTB-184, RRID:CVCL_1565), NCI-H1417 (CRL-5869, RRID:CVCL_1469), and NCI-H196 small cell lung carcinoma (CRL-5823, RRID:CVCL_1509). Dr. Peter Houghton (Greehey Children's Cancer Research Institute, University of Texas Health Science Center, San Antonio, TX) provided Rh-18 rhabdomyosarcoma (RRID:CVCL_1659). Pooled donor human umbilical vein endothelial cells (HUVEC, Lonza, cat. CC-2519) and human mesenchymal stem cells (hMSC, Lonza, cat. PT-2501) were purchased from Lonza (Walkersville, MD).
Cell Culture. […]
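Note: compound exposure lasted 7 days.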
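Throughout, for viability, T/C: 100% = DMSO vehicle control wells.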

Take `CCN1C(C(=O)NC23CCC(C(=O)O)(CC2)CC3)C(c2cccc(Cl)c2F)C2(C(=O)Nc3cc(Cl)ccc32)C12CCCCC2` (stereo not drawn): the viability, T/C is, setting by setting: (compound 0.00949 µM) 98.6% [middle of 8 runs]; (compound 0.03 µM) 96.1% [middle of 8 runs]; (compound 0.0949 µM) 88.7% [middle of 8 runs]; (compound 0.3 µM) 82.9% [middle of 8 runs]; (compound 0.949 µM) 76.8% [middle of 8 runs]; (compound 3 µM) 77.5% [middle of 8 runs]. In addition, the concentration for half-maximal inhibition (IC50) is above 3 µM (compound alone, run of 11/07/2022) and above 3 µM (curve of compound).

As a reminder, the viability, T/C is the ratio of treated to control. Usually IC50 stands for the point on the concentration scale where inhibition reaches its midpoint.
